This note sets out measurements from ChEMBL document CHEMBL4823308, “Optimization of Triarylpyridinone Inhibitors of the Main Protease of SARS-CoV-2 to Low-Nanomolar Antiviral Potency” (ACS Med Chem Lett, 2021).

Data set [1] can be described thus: in vitro. The conditions noted are these: chlorocebus sabaeus, Vero E6 cells.
Description: (§1) Cytotoxicity against African green monkey Vero E6 cells after 72 hrs by MTT assay
Data set [2] in a line: in vitro. The conditions noted are these: human, 16HBE14o- cells.
Description: (§2) Cytotoxicity against human 16HBE14o- after 72 hrs by MTT assay
For data set [3] the following is noted: pampa, pH 7.4, 18 h.
Description: (§3) Permeability of compound in PBS at pH 7.4 after 18 hrs by PAMPA
Data set [4] can be described thus: Aqueous solubility of the compound in Britton-Robinson buffer at pH 6.5 after 48 hrs by shake flask method. It counts as physicochemical.
For another data set, the system named is Vero C1008. The conditions noted are these: chlorocebus sabaeus, vero c1008, 72 h.
Another data set deals with 16HBE14o-. The conditions noted are these: human, 72 h.
The test system of the next data set is SARS-CoV-2. Conditions: 16hbe14o-; call rule not given here.
Data set [5] can be described thus: in vitro. The conditions noted are these: PAMPA, pH 7.4. Background: The PAMPA barrier holds no transporters, so it reflects passive diffusion.
Description: as §3

Values after ≈ are worked out from the molar mass of the structure shown. Some results are limits rather than exact numbers.

Description for 16HBE14o-: as §2
Description for SARS-CoV-2: Antiviral activity against SARS-CoV-2 infected in 16HBE14o- cells assessed as inhibition of viral replication after 1 day by Nano-Glo luciferase assay
Description for Vero C1008: as §1

As for `CCC(CC)COC(=O)[C@H](C)N[P@](=O)(OC[C@H]1O[C@@](C#N)(c2ccc3c(N)ncnn23)[C@H](O)[C@@H]1O)Oc1ccccc1`, the CC50 at 72 h in the data set “in vitro [1]” was determined as 72 µM; in the data set “in vitro [2]”, 41 µM.
Taken in the same sequence, the figures for `CCCOc1cc(Cl)cc(-c2cc(-c3ccccc3C#N)cn(-c3cccnc3)c2=O)c1` were 22 µM and 20 µM.
As a reminder, the thermodynamic solubility is solubility found after equilibrating the solid with the medium. Take `N#Cc1ccccc1-c1cc(-c2cc(Cl)cc(OCCC(F)(F)F)c2)c(=O)n(-c2cccnc2)c1`: the CC50 at 72 h was 22 µM in “in vitro [1]” and 25 µM in the data set “in vitro [2]”. The permeability in data set [3] is reported as 4 10^-6 cm/s. In data set [4], this molecule had a thermodynamic solubility at 48 h of 25 µg/mL (≈ 50.4 µM).
On the same counts, the results for `N#Cc1ccccc1-c1cc(-c2cc(Cl)cc(OCC3CC3)c2)c(=O)n(-c2cccnc2)c1` are over 100 µM, over 100 µM, 4.27 10^-6 cm/s and 3 µg/mL (≈ 6.61 µM).
In the data set with Vero C1008, `Cn1cc(-c2cc(-c3cc(Cl)c(F)c(OCc4ccccc4Cl)c3)c(=O)n(-c3cccnc3)c2)c(=O)[nH]c1=O` came in with a CC50 of over 32.5 µM. Moreover, in “in vitro [2]”, the CC50 at 72 h was over 32.5 µM. The molecule also gave a solubility (thermodynamic) at 48 h in data set [4] of 116 µg/mL (≈ 206 µM).
With `Cc1ncoc1COc1cc(Cl)cc(-c2cc(-c3c[nH]c(=O)[nH]c3=O)cn(-c3cccnc3)c2=O)c1`, the permeability in data set [3] is given as 0.24 10^-6 cm/s. In data set [4], this molecule showed a solubility (thermodynamic) at 48 h of 168 µg/mL (≈ 333 µM).
For the molecule `Cn1cc(-c2cc(-c3cc(Cl)cc(OCc4scnc4C(F)(F)F)c3)c(=O)n(-c3cccnc3)c2)c(=O)[nH]c1=O`, the CC50 in the data set with Vero C1008 was over 100 µM. For the same molecule, the CC50 at 72 h in “in vitro [2]” is over 100 µM. Also, the permeability in data set [3] is on record as 1.16 10^-6 cm/s. In data set [4], the thermodynamic solubility at 48 h was 24.8 µg/mL (≈ 42.2 µM).
Take `Cc1scnc1COc1cc(Cl)cc(-c2cc(-c3c[nH]c(=O)[nH]c3=O)cn(-c3cccnc3)c2=O)c1`: the CC50 was 22 µM in the data set on 16HBE14o- and over 100 µM in the data set with Vero C1008.
`O=c1[nH]cc(-c2cc(-c3cc(Cl)c(F)c(OCc4ccccc4Cl)c3)c(=O)n(-c3cccnc3)c2)c(=O)[nH]1` returned a CC50 in the data set with Vero C1008 of over 80 µM. The molecule further returned a CC50 at 72 h in the data set “in vitro [2]” of over 95 µM. In addition, the permeability in data set [3] was 0.73 10^-6 cm/s. For the same molecule, the thermodynamic solubility at 48 h in data set [4] stood at 21.8 µg/mL (≈ 39.5 µM).
In the case of `Cc1ocnc1COc1cc(Cl)cc(-c2cc(-c3ccccc3C#N)cn(-c3cccnc3)c2=O)c1`, the permeability in data set [3] is listed as 3.04 10^-6 cm/s. In data set [4], the solubility (thermodynamic) at 48 h was determined as 13.1 µg/mL (≈ 26.5 µM).
Consider `Cn1cc(-c2cc(-c3cc(Cl)cc(OCC4CC4)c3)c(=O)n(-c3cccnc3)c2)c(=O)[nH]c1=O`, for which the CC50 in the data set with Vero C1008 is 82 µM. Further, in “in vitro [2]”, the CC50 at 72 h was over 100 µM. Moreover, in data set [3], the permeability was 3.25 10^-6 cm/s. This molecule displayed a thermodynamic solubility at 48 h in data set [4] of 14.2 µg/mL (≈ 29.8 µM).
Turning to `Cn1cc(-c2cc(-c3cc(Cl)cc(OCc4ocnc4C(F)(F)F)c3)c(=O)n(-c3cccnc3)c2)c(=O)[nH]c1=O`, the permeability in data set [3] was 1.03 10^-6 cm/s. In data set [4], the thermodynamic solubility at 48 h worked out at 34.5 µg/mL (≈ 60.3 µM).
In the case of `Cn1cc(-c2cc(-c3cc(Cl)cc(OCCC(F)(F)F)c3)c(=O)n(-c3cccnc3)c2)c(=O)[nH]c1=O`, in the data set on Vero C1008, the CC50 was over 100 µM. Further, the CC50 at 72 h in the data set “in vitro [2]” is 95 µM. For the same molecule, the permeability in data set [3] was 2.26 10^-6 cm/s. Also, the thermodynamic solubility at 48 h in data set [4] was determined as 57 µg/mL (≈ 110 µM).
In turn, `O=c1[nH]cc(-c2cc(-c3cc(Cl)cc(OCc4scnc4C(F)(F)F)c3)c(=O)n(-c3cccnc3)c2)c(=O)[nH]1` gave a CC50 in the data set with Vero C1008 of over 100 µM. In addition, in the data set on SARS-CoV-2, the EC50 entry is given as “Not Active”. For the same molecule, the CC50 at 72 h in “in vitro [2]” was over 100 µM.
Consider `O=c1[nH]cc(-c2cc(-c3cc(Cl)cc(OCc4ocnc4C(F)(F)F)c3)c(=O)n(-c3cccnc3)c2)c(=O)[nH]1`, for which the CC50 in the data set on Vero C1008 is over 100 µM. Further, in the data set on SARS-CoV-2, the EC50 entry is recorded as “Not Active”. For the same molecule, in the data set “in vitro [2]”, the CC50 at 72 h was over 100 µM. For the same molecule, the permeability in data set [3] was 0.57 10^-6 cm/s.
For `Cc1ocnc1COc1cc(Cl)cc(-c2cc(-c3c[nH]c(=O)[nH]c3=O)cn(-c3cccnc3)c2=O)c1`, the solubility (thermodynamic) at 48 h in data set [4] was 7.6 µg/mL (≈ 15.1 µM).
By Papp is commonly meant a coefficient for how fast a substance crosses the barrier. Low readings indicate poor permeation, high ones ready permeation. As to `O=C(N[C@H](CO)[C@H](O)c1ccc([N+](=O)[O-])cc1)C(Cl)Cl` [CHLORAMPHENICOL], in “in vitro [5]”, the Papp at 18 h worked out at 5 ×10⁻⁶ cm/s.
Still for that read-out and setting: then `Cn1c(=O)c2[nH]cnc2n(C)c1=O.O` [THEOPHYLLINE], with 0.3 ×10⁻⁶ cm/s.
